Here are results for seven compounds from US9861640B2, “Medicament for treatment of Alzheimer's disease” (KEMPHYS LTD., priority 2013, dated 2018).

For one data set, the system named is RARβ and IL-4Rα mRNAs. Particulars: murine dendritic cells [66]; cited from earlier work.
Another data set concerns TNF-α. Particulars: in vitro, Aβ peptide-activated [72]; cited from earlier work.
Another data set relates to RXR. Particulars: 20 mg/kg; RXR-specific reporter transgene [48]; cited from earlier work.
A further data set relates to APP/PS1 mice. The settings on record: cited from earlier work.
The next data set concerns nitric oxide production. The settings on record: in vitro [72, 73]; cited from earlier work.
The conditions of data set [1]: mice [17]; cited from earlier work.
For the next data set, the system named is Tg2576 mice. The settings on record: T-maze spontaneous alternation and Nest building tests [17]; cited from earlier work.
A further data set has as its system IDE. Particulars: murine microglial cells [17]; cited from earlier work.
Another data set concerns CD36. In words: Immunoblot of CD36 in rat primary microglia. It is filed as cell-based. The settings on record: rat primary microglia; co-incubation of GW9662 (10 μM) with HX630 (5 μM), 48 h. From the text:
Primary microglia (type 1) were harvested from primary mixed glial cell cultures prepared from neonatal Wistar rat pups, as previously reported. Mouse microglial cell line MG5 and mouse glial cell line A1 were maintained as previously described. Mouse neuroblastoma cell line N1E-115 and Neuro 2a (American Type Culture Collection, Manassas, Va., USA) were maintained in Dulbecco's modified Eagle's medium (DMEM) supplemented with 10% fetal bovine serum (FBS), 20 U/ml penicillin (Invitrogen, Gaithersburg, Md., USA), and 20 μg/ml streptomycin (Invitrogen). Primary rat microglia were treated with Am80 (5 μM) and/or HX630 (5 μM) in the presence and absence of GW9662 (10 μM) for 48 h in Eagle's MEM supplemented with 10% FBS and 0.2% glucose. MG5 cells and A1 cells were treated with Am80 (5 μM) and/or HX630 (5 μM) for 48 h in DMEM containing 10% FBS. […]
Rat primary microglia and mouse microglial MG5 cells (5×10^6 cells per 100-mm dish) were homogenized in RIPA buffer [10 mM Hepes-NaOH (pH 7.4) containing 150 mM NaCl, 1 mM EDTA, 1% Triton X-100, 0.5% sodium deoxycholate, 0.1% SDS, 1 mM PMSF, 1 mg/ml leupeptin. […] Bound horseradish peroxidase-labeled antibodies were then detected via chemiluminescence (an ECL kit; Pierce, Rockford, Ill., USA). Protein concentrations were determined with the BCA Protein Assay Reagent (Pierce) and Bradford Protein Assay Reagent (Pierce).
(In general: A western blot detects proteins with antibodies after separation by electrophoresis.)

For a further data set, the system named is RARs. Particulars: at higher concentrations [49]; cited from earlier work.
For another data set, the system named is rat primary microglia. Kind of data set: Clearance of 125I-labeled oligomeric Aβ1-42 by rat primary microglia. In kind it is cell-based. From the text:
Primary microglia (type 1) were harvested from primary mixed glial cell cultures prepared from neonatal Wistar rat pups, as previously reported. Mouse microglial cell line MG5 and mouse glial cell line A1 were maintained as previously described. Mouse neuroblastoma cell line N1E-115 and Neuro 2a (American Type Culture Collection, Manassas, Va., USA) were maintained in Dulbecco's modified Eagle's medium (DMEM) supplemented with 10% fetal bovine serum (FBS), 20 U/ml penicillin (Invitrogen, Gaithersburg, Md., USA), and 20 μg/ml streptomycin (Invitrogen). Primary rat microglia were treated with Am80 (5 μM) and/or HX630 (5 μM) in the presence and absence of GW9662 (10 μM) for 48 h in Eagle's MEM supplemented with 10% FBS and 0.2% glucose. MG5 cells and A1 cells were treated with Am80 (5 μM) and/or HX630 (5 μM) for 48 h in DMEM containing 10% FBS. N1E-115 cells were treated with Am80 (5 μM) and/or HX630 (5 μM) for 5 days in DMEM containing 2% FBS.
^125I-Labeled oligomeric Aβ1-42 (o-Aβ1-42) was prepared as described. Cells were cultured in 24-well plates for 48 h in Eagle's MEM supplemented with 10% FBS in the presence or absence of Am80 (5 μM) and HX630 (5 μM). After the 48-h treatment, the cells were washed twice with labeling medium (DMEM containing 3% BSA) and then incubated with ^125I-labeled o-Aβ1-42 for 6 h at 37° C. Following the 6-h incubation, medium was removed from each well, and soluble radioactivity in TCA (degraded and extracellularly released peptide fragments) was determined as an index of Aβ degradation in the medium as described previously. The Aβ degradation activity may thus include both receptor-mediated phagocytic activity and extracellular protease-mediated degradation. Cells were washed three times with PBS, then lysed with 0.4 ml of 0.1 M NaOH for 30 min at 37° C., and cell-associated (including cell-incorporated) radioactivity and cell proteins were determined with an autogamma counter and the BCA Protein Assay Reagent (Pierce), respectively. We could not determine the activity of IDE-dependent degradation in this medium, because the incubation medium was replaced with labeling medium prior to incubation with ^[…].

For the compound `CC1=C(/C=C/C(C)=C/C=C/C(C)=C/C(=O)O)C(C)(C)CCC1` [ATRA, all trans retinoic acid], in the data set on RARβ and IL-4Rα mRNAs, the “mRNAs encoding RARβ and IL-4Rα” value is “markedly increased”. Further, the “inhibitory effect on TNF-α production” value with TNF-α is 40-50%. Further, the “activation of RXR in vivo” value with RXR was “activates RXR”. Besides, the “memory function in APP/PS1 mice” value in the data set with APP/PS1 mice (ATRA alone [14]) is on record as “improved memory function”. Moreover, the “inhibition of nitric oxide production” value in the data set on nitric oxide production is “complete inhibition”.

For the compound `CC1(C)CCC(C)(C)c2cc(C(=O)Nc3ccc(C(=O)O)cc3)ccc21` [Am580, 4-{(5,6,7,8-tetrahydro5,5,8,8-tetramethyl-2-naphthalenyl)carboxamido}benzoic acid], the “crossing of the BBB” value in data set [1] was “crosses the BBB”. Also, the “cognitive deficits in Tg2576 mice” value in the data set on Tg2576 mice is recorded as “ameliorated cognitive deficits”. Also, the “IDE activity in the medium” value in the data set with IDE is given as “increased”.

In the case of `O=C(Nc1ccccc1)c1cc([N+](=O)[O-])ccc1Cl` [GW9662], in the data set on CD36, the “effect on the HX630-induced increase in CD36 expression” value is listed as “inhibited”.

Consider `C=C(c1ccc(C(=O)O)cc1)c1cc2c(cc1C)C(C)(C)CCC2(C)C` [bexarotene], for which, in the data set with RARs, the “cross-reactivity with RARs” value is on record as “cross-reactivity”. Moreover, in the data set on APP/PS1 mice (mouse, in vivo), the “behavioral defects in APP/PS1 mice” value was “improved behavioral defects”.

On to `O=C(O)CNC(=O)C(CS)Cc1ccccc1` (centres unmarked) [thiorphan], for which the “effect on degradation activity in Am80/HX630-treated cells” value with rat primary microglia (thiorphan 30 μM) is given as “did not affect”.

In the case of fucoidan, in the data set on rat primary microglia (fucoidan 100 μg/ml), the “effect on the HX630- and Am80/HX630-induced increase of o-Aβ1-42 degradation activity” value is given as “inhibited”.

Regarding insulin: an IDE inhibitor, the “effect on cell-association and degradation activities in Am80/HX630-treated cells” value in the data set with rat primary microglia (insulin 100 μg/ml) was “inhibited”.
